Assay results as given in article PMC8876525 (Viruses, 2022).
Marks after values point to notes of the source that are not given here.

What was measured:
[1] = tested on: HBV 3.5 kb RNA; assay: Intracellular HBV 3.5 kb RNA (RT-qPCR); type: cell-based; conditions: 6 days
[2] = tested on: HBeAg; assay: Secreted HBeAg ELISA; type: cell-based, HBV; conditions: 6 days
[3] = CCK-8 cytotoxicity assay in HepG2-HBV1.3 (HepG2) cells; type: cell-based; conditions: human
[4] = tested on: HBV encapsidated pgRNA; assay: Encapsidated pgRNA and total HBV RNAs (Northern blot); type: cell-based; conditions: HepAD38 cells, BAY 41-4109 2 μM; for Effect on intracellular total HBV RNAs: C-18, C-39 5 μM; for Effect on HBV encapsidated pgRNA: C-18, C-39, C-19 5 μM, ETV 25 nM
[5] = tested on: HBsAg; assay: Secreted HBsAg ELISA; type: cell-based, HBV; conditions: 6 days, ETV 25 nM, BAY 41-4109 2 μM
[6] = tested on: HBV; assay: Secreted HBV DNA in HepG2-HBV1.3 culture supernatant (RT-qPCR); type: cell-based; conditions: HepG2-HBV1.3 cells
[7] = tested on: HBV; assay: Secreted HBV DNA in HepAD38 culture supernatant (RT-qPCR); type: cell-based; conditions: for EC50: read-out: EC50 (secreted HBV DNA); for Residual HBV DNA level (secreted) relative to DMSO control: 20 μM compound
[8] = tested on: HBV core DNA; assay: Intracellular HBV core DNA (qPCR) and replicative intermediates (Southern blot); type: cell-based; conditions: 6 days; for Effect on intracellular HBV core DNA: qPCR
[9] = CCK-8 cytotoxicity assay in HepAD38 cells; type: cell-based, Human; conditions: human, 6 days
[10] = biological target: HBV capsid (Hepatitis B virus genotype D subtype ayw, UniProt P03146); assay: Intracellular HBV capsid formation; type: cell-based; conditions: 6 days; for Effect on intracellular HBV capsid formation at single concentration: HepAD38 or HepG2-HBV1.3 cells, compounds 10 μM, ETV 25 nM, BAY 41-4109 2 μM
Chain of HBV capsid (P03146 whole entry): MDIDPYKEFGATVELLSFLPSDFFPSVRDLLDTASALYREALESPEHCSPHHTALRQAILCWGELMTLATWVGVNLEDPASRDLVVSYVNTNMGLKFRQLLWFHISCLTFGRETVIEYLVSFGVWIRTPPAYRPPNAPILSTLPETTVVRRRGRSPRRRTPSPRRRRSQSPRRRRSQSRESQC

[11] = biological target: HBc (Hepatitis B virus genotype D subtype ayw, UniProt P03146); assay: Immunofluorescence of HBV core protein in HepAD38 cells; type: cell-based; conditions: 3 days, BAY 41-4109 2 μM; for HBc localisation / aggregation: C-18 and C-39 5 μM
Chain of HBc (P03146 whole entry): as above

[12] = tested on: HBV; assay: HepG2-NTCP de novo HBV infection model (viral markers, cccDNA Taq-Man qPCR); type: cell-based; conditions: HepG2-NTCP cells, 5 μM
[13] = tested on: HepAD38 cells; assay: CCK-8 cytotoxicity assay in HepAD38 cells; type: cell-based, Human
[14] = tested on: wild-type HBV; assay: Drug susceptibility assay, HepG2 transfected with HBV1.1-WT; type: cell-based; conditions: Hepatitis B virus, 144 h; wild-type HBV in HepG2, secreted HBV DNA, 6 days; read-out: viral replication EC50
[15] = tested on: ETV-resistant mutant (rtL180M/S202G/M204V) HBV; assay: Drug susceptibility assay, HepG2 transfected with ETV-resistant mutant; type: cell-based; conditions: Hepatitis B virus, HepG2, 144 h, read-out: viral replication EC50
[16] = biological target: Cp149 protein (Hepatitis B virus genotype D subtype ayw, UniProt P03146); assay: Cp149 capsid assembly in vitro, transmission electron microscopy; type: biochemical, HBV; conditions: Cp149 5 μM dimer, 300 mM NaCl, 150 mM HEPES pH 7.5; BAY 41-4109 5 μM 3 days, C-39 20 μM 3 and 7 days
Chain of Cp149 protein (P03146 1-149): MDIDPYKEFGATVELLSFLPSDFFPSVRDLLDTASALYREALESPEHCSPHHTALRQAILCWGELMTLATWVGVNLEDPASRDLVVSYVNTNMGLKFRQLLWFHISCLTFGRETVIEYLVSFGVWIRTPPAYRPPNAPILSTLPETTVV

[17] = Hepatitis B virus, 144 h, HepAD38 cells, 6 days

SMILES: Cc1cc2c(cc1S(=O)(=O)N1CCCC(C(=O)Nc3ccc(F)c(Cl)c3)C1)OC(C)C(=O)N2 (centres unmarked) [Compound C-18]
- Effect on intracellular HBV 3.5 kb RNA ([1]; HepAD38 cells): dramatic decrease
- Effect on intracellular HBV 3.5 kb RNA ([1]; HepG2-HBV1.3 cells): downregulated
- Effect on secreted HBeAg ([2]; HepAD38 cells): reduced the HBeAg level
- Effect on secreted HBeAg ([2]; HepG2-HBV1.3 cells): downregulated
- CC50 at 6 days [3]: 20600 nM
- Effect on intracellular total HBV RNAs [4]: slight decrease
- Effect on HBV encapsidated pgRNA [4]: markedly downregulated
- Effect on secreted HBsAg ([5]; HepAD38 cells): no impact on HBsAg
- SI (CC50/EC50) [6]: 147.1
- EC50 ([6]; Hepatitis B virus, 144 h, 6 days): 140 nM
- SI (CC50/EC50) ([7]; HepAD38 cells): 131.2
- EC50 [7, 17]: 110 ± 30 nM
- Effect on HBV replicative intermediates ([8]; HepAD38 cells, Southern blot): notably downregulated
- Effect on intracellular HBV core DNA ([8]; HepAD38 cells): dramatic decrease
- Effect on intracellular HBV core DNA ([8]; HepG2-HBV1.3 cells): downregulated
- CC50 at 6 days [9]: 14800 ± 700 nM
- Effect on intracellular HBV capsid formation at single concentration [10]: strongly inhibited
- Effect on intracellular HBV capsid formation, concentration series ([10]; HepG2-HBV1.3 cells): downregulated
- HBc localisation / aggregation [11]: induced punctate HBc aggregation within the nucleus
- Effect on cccDNA formation, treatment together with viral inoculum (day 0) [12]: prevented the formation of cccDNA during the early postentry step
- Effect on pre-established cccDNA, treatment 4 days after infection (day 4) [12]: minor effect

SMILES: O=C(Nc1ccc(F)c(Cl)c1)C1CCCN(S(=O)(=O)c2c[nH]c(C(=O)N3CCCC3)c2)C1 (centres unmarked) [Compound C-40]
- SI (CC50/EC50) ([7]; HepAD38 cells): 32.3 ^a
- EC50 [7, 17]: 390 ± 10 nM
- CC50 at 6 days [9]: 12600 ± 700 nM
- Cytotoxicity in words [13]: medium cytotoxicity

SMILES: Cc1nc(-c2csc(S(=O)(=O)N3CCCC(C(=O)Nc4ccc(F)c(Cl)c4)C3)c2)no1 (centres unmarked) [Compound C-41]
- SI (CC50/EC50) ([7]; HepAD38 cells): 1542 ^a
- EC50 [7, 17]: 62 ± 13 nM
- CC50 at 6 days [9]: 95600 ± 15700 nM

SMILES: O=C(CSc1nnc(-c2cccs2)n1CCc1ccccc1)Nc1ccc(F)cc1 [Compound C-7]
- SI (CC50/EC50) ([7]; HepAD38 cells): >54.7
- EC50 [7, 17]: 1830 ± 440 nM
- CC50 at 6 days [9]: > 100000 nM
- Effect on intracellular HBV capsid formation at single concentration [10]: moderate inhibition

SMILES: CC(=O)N1c2ccc(S(=O)(=O)N3CCCC(C(=O)Nc4ccc(F)c(Cl)c4)C3)cc2CC1C (centres unmarked) [Compound C-31]
- SI (CC50/EC50) ([7]; HepAD38 cells): 96.0 ^a
- EC50 [7, 17]: 260 ± 30 nM
- CC50 at 6 days [9]: 25000 ± 3300 nM

SMILES: COc1cccc(-c2noc([C@@H]3CCCN3C(=O)Nc3ccc(F)c(Cl)c3)n2)c1 [Compound C-9]
- SI (CC50/EC50) ([7]; HepAD38 cells): 23.4
- EC50 [7, 17]: 1140 ± 230 nM
- CC50 at 6 days [9]: 26600 ± 2000 nM
- Effect on intracellular HBV capsid formation at single concentration [10]: did not affect the capsid formation

SMILES: Nc1nc(N2C(=O)C3CC=CCC3C2=O)nn1-c1ccccc1 (centres unmarked) [Compound C-5]
- Residual HBV DNA level (secreted) relative to DMSO control ([7]; HepAD38 cells): 51%

SMILES: O=C(Nc1ccc(F)c(F)c1)c1cc2nccc(-c3cccs3)n2n1 [Compound C-2]
- Residual HBV DNA level (secreted) relative to DMSO control ([7]; HepAD38 cells): 44%

SMILES: O=C(CSc1nnc2ccc(C(=O)Nc3cccc(F)c3)cn12)Nc1ccc(F)c(F)c1 [Compound C-25]
- SI (CC50/EC50) ([7]; HepAD38 cells): 114.6 ^a
- EC50 [7, 17]: 290 ± 20 nM
- CC50 at 6 days [9]: 33200 ± 1900 nM

SMILES: Cc1cccc(NC(=O)c2ccc3nnc(SCC(=O)Nc4ccc(F)c(F)c4)n3c2)c1 [Compound C-16]
- SI (CC50/EC50) ([7]; HepAD38 cells): 56.3
- EC50 [7, 17]: 1290 ± 350 nM
- CC50 at 6 days [9]: 72400 ± 1900 nM
- Effect on intracellular HBV capsid formation at single concentration [10]: did not affect the capsid formation

SMILES: C=C1[C@H](CO)[C@@H](O)C[C@@H]1n1cnc2c(=O)[nH]c(N)nc21 [ETV, Entecavir, reference compound]
- Effect on HBV encapsidated pgRNA [4]: upregulated
- EC50 [14]: 3.2 nM
- Effect on secreted HBsAg ([5]; HepAD38 cells): no impact on HBsAg production
- Effect on secreted HBsAg ([5]; HepG2-HBV1.3 cells): no impact on HBsAg production
- EC50 [15]: 6.1 nM
- EC50 ([7]; Hepatitis B virus, HePAD38, 144 h): 3 ± 1 nM
- Effect on intracellular HBV capsid formation at single concentration [10]: much less or no inhibition effects

SMILES: CC1(C(=O)NCc2ccc(F)cc2)CCCN(C(=O)Nc2ccc(F)c(Cl)c2)C1 (centres unmarked) [Compound C-27]
- SI (CC50/EC50) ([7]; HepAD38 cells): 72.8 ^a
- EC50 [7, 17]: 1120 ± 50 nM
- CC50 at 6 days [9]: 81500 ± 5800 nM

SMILES: COC(=O)C1=C(C)NC(c2ncc(F)cc2F)=N[C@H]1c1ccc(F)cc1Cl [BAY 41-4109, reference compound]
- Effect on intracellular total HBV RNAs [4]: slight decrease
- Effect on HBV encapsidated pgRNA [4]: markedly downregulated
- Effect on secreted HBsAg ([5]; HepAD38 cells): no impact on HBsAg production
- Effect on secreted HBsAg ([5]; HepG2-HBV1.3 cells): no impact on HBsAg production
- Morphology of assembled Cp149 particles (TEM) [16]: large irregular particles
- EC50 ([7]; HepAD38 cells, 6 days): 67 ± 10 nM
- Effect on intracellular HBV capsid formation at single concentration [10]: dramatically inhibited capsid formation
- HBc localisation / aggregation [11]: induced punctate HBc aggregation within the nucleus
- HBc level by immunofluorescence ([11]; C-39 5 μM): significantly decreased the HBc level

SMILES: Cc1cc2c(cc1S(=O)(=O)N1CCCC(C(=O)Nc3ccc(F)c(Cl)c3)C1)OCC(=O)N2 (centres unmarked) [Compound C-29]
- SI (CC50/EC50) ([7]; HepAD38 cells): 14.1 ^a
- EC50 [7, 17]: 1290 ± 10 nM
- CC50 at 6 days [9]: 18200 ± 2200 nM
- Cytotoxicity in words [13]: medium cytotoxicity

SMILES: CCOC(=O)c1c(C)[nH]c(C)c1S(=O)(=O)N1CCCC(C(=O)Nc2ccc(F)c(Cl)c2)C1 (centres unmarked) [Compound C-37]
- SI (CC50/EC50) ([7]; HepAD38 cells): 31.3 ^a
- EC50 [7, 17]: 350 ± 50 nM
- CC50 at 6 days [9]: 11000 ± 700 nM

SMILES: CC1Oc2ccc(S(=O)(=O)N3CCCC(C(=O)Nc4ccc(F)c(Cl)c4)C3)cc2NC1=O (centres unmarked) [Compound C-35]
- SI (CC50/EC50) ([7]; HepAD38 cells): 23.9 ^a
- EC50 [7, 17]: 410 ± 10 nM
- CC50 at 6 days [9]: 9800 ± 1000 nM
- Cytotoxicity in words [13]: medium cytotoxicity

SMILES: Cc1nnc2ccc(N3CCCC(C(=O)Nc4ccc(F)c(Cl)c4)C3)nn12 (centres unmarked) [Compound C-4]
- Residual HBV DNA level (secreted) relative to DMSO control ([7]; HepAD38 cells): 21%

SMILES: Cc1onc(C(=O)Nc2ccc(F)c(F)c2)c1COc1cccc(C(F)(F)F)c1 [Compound C-1]
- Residual HBV DNA level (secreted) relative to DMSO control ([7]; HepAD38 cells): 62%

SMILES: Cc1cc(O)c(C2=Nc3c(C(N)=O)cnn3C(c3cccc(Cl)c3)C2)c(=O)o1 (centres unmarked) [Compound C-6]
- Residual HBV DNA level (secreted) relative to DMSO control ([7]; HepAD38 cells): 36%

SMILES: O=C(Nc1ccc(F)c(F)c1)c1cc(S(=O)(=O)N(CCc2ccccc2)Cc2ccccc2)ccc1F [Compound C-19]
- Effect on HBV encapsidated pgRNA [4]: slight effects
- SI (CC50/EC50) ([7]; HepAD38 cells): 194.1
- EC50 [7, 17]: 390 ± 130 nM
- CC50 at 6 days [9]: 75300 ± 5200 nM
- Effect on intracellular HBV capsid formation at single concentration [10]: did not affect the capsid formation
